Results as given in patent publication US10729738B2, “Hindered disulfide drug conjugates” (priority 2015, dated 2020).
Where a SMILES comes first, the peptide text is derived from it. [ ]: non-standard residue; d: D form. The star is where a group is joined. X14 = CC(C)(COC(=O)*)SSc1nc2cc([N+](=O)[O-])ccc2[nH]1; X6 = CC(C)(COC(=O)*)SSc1nc2c([N+](=O)[O-])cccc2[nH]1; Dolaproine = CO[C@@H]([C@@H]1CCCN1)[C@@H](C)C(=O)O; X11 = CC(C)(COC(=O)*)SSc1nc2ccc(C(=O)O)cc2[nH]1; X3 = CC(C)(COC(=O)*)SSc1ccc([N+](=O)[O-])cn1; Dil = CC[C@H](C)[C@H](NC)[C@@H](CC(=O)O)OC; X16 = CN(C)C(=O)c1cnccc1SSC(C)(C)COC(=O)*; X4 = CC(C)(COC(=O)*)SSc1nc2ncnc(N)c2[nH]1; X10 = CC(C)(COC(=O)*)SSc1nc2ncncc2[nH]1; X12 = Cn1c(C(=O)O)cnc1SSC(C)(C)COC(=O)*; X13 = CC(C)(COC(=O)*)SSc1nc2cnccc2[nH]1; X17 = Cn1c(SSC(C)(C)COC(=O)*)nc2ccccc21; X5 = CC(C)(COC(=O)*)SSc1nc2ncccc2[nH]1; X7 = CC(C)(COC(=O)*)SSc1nc2ccccc2[nH]1; X8 = CC(C)(COC(=O)*)SSc1nc2nccnc2[nH]1; X2 = C[C@@H](N*)[C@@H](O)c1ccccc1; X9 = CC(C)(COC(=O)*)SSc1nnn[nH]1; X1 = Cn1nnnc1SSC(C)(C)COC(=O)*; NMeV = CN[C@H](C(=O)O)C(C)C

What was measured:
[1] = molecular target: human serum albumin Cys-34 (Homo sapiens, UniProt P02768); assay: Conjugation of activated disulfide-MMAE molecules to human serum albumin (Conjugate Ratio, LC/MS); settings: disulfide MMAE compound at 10 molar equivalents relative to HSA, 75 mM Tris pH 8.5, ~16 hours at room temperature
Description: In a first evaluation, MMAE was conjugated to human serum albumin (HSA). […] This Cys residue is blocked as a mixed disulfide with Cys or glutathione, preventing complete conjugation of other molecules to this residue. […] Conjugate reactions were analyzed by LC/MS. The extent of the expected MMAE-HSA conjugate formed during the reaction is represented by the “Conjugate Ratio”, measured by dividing the abundance of the MS peak for the MMAE-HSA conjugate by the sum total abundance of all peaks observed. The ideal value for the Conjugate Ratio is 1.0. The results are reported in table 31 below wherein the wavy line for the leaving group represents the point of attachment to the disulfide bond, and “HSA CR” refers to human serum albumin conjugate ratio.

[2] = molecular target: T1, penetratin (AntP) peptide (Drosophila melanogaster, UniProt P02833); assay: Conjugation of activated disulfide-MMAE molecules to penetratin (AntP) peptide (% Product); settings: peptide 25 uM, disulfide MMAE 5 equivalents, 75 mM Tris pH 8.5 and 10% DMF, ~16 hours at room temperature, UV peak area
T1 construct: C-terminal amide (CONH2); made in house; host or cells: chemical synthesis (Fmoc solid-phase peptide synthesis)
Description: In a second evaluation, MMAE was conjugated to penetratin (AntP) peptide. The AntP peptide, with sequence H2N-[…]-CONH2 (SEQ ID NO:1) bearing a free Cys thiol at the C-terminus, was synthesized via standard Fmoc solid-phase peptide synthesis methods. This peptide was conjugated at a concentration of 25 uM to disulfide MMAE molecules with varying leaving groups (5 equivalents) in a buffered solution composed of 75 mM Tris, pH 8.5 and 10% DMF for ˜16 hours at room temperature. Extent of the reaction was measured by dividing the integrated area for the UV peak of the MMAE-AntP conjugate by the sum of all peaks (“% Product”). The ideal value for % Product is 100%. The results are reported in table 31 below wherein the wavy line for the leaving group represent the point of attachment to the disulfide bond, and “AntP % P” refers to penetratin (AntP) peptide % product.

[3] = In vitro disulfide cleavage and immolation by incubation with cysteine or glutathione (LC/MS); assay type: physicochemical; settings: for Percentage of all products: pH 7.0, 37° C.
Description: In a first phase of the experiment, disulfide cleavage and immolation by incubation with cysteine and glutathione—with the thiol concentrations mimic those in plasma and cancer cells—was investigated using unconjugated small molecule model systems with para-nitro-pyridyl disulfide-containing linker drug analogs 1, 2 and 11 below. In particular, cleavage and immolation was evaluated in vitro by incubation at […] with cysteine ([…] or 200 μM) or glutathione (GSH, 4 mM) in 100 mM Tris buffer pH 7.0 containing 5% methanol at 37° C. Aliquots were taken at specified time points and the samples were analyzed by LC/MS on Sciex TripleTOF 5600 on a Hypersil Gold C18 column (100×2.1, […], Thermo Scientific). The column was eluted by a gradient of buffer A (0.1% formic acid in 10 mM ammonium acetate) to buffer B (0.1% formic acid in 10 mM ammonium acetate in 90% acetonitrile), 5% B 0-0.5 min, 5-25% B 0.5-8 min, 25-75% B 8-13 min, and 75-95% B 13-13.5 min, 95% B 13.5-14.5 min, 95-5% B 14.5-15 min at 0.4 mL/min. Under these conditions, para-nitropyridyl thiol was eluted at 5.3 min. All products (compounds 1, 2, 11, 3a, 3b, 4a, 4b, 12a, 12 b, 6, 7, 13 and 8) were separated and characterized by LC/MS/MS in a positive ESI ion mode. All analytes had the protonated molecular MH^+ as the major species with little source fragmentation. Full scan accurate mass peak areas were used to estimate relative abundance of each component and the disappearance of 1, 2, and 11 estimated relative full scan peak areas was consistent with that estimated based on the relative abundance compared to time 0 by MS or UV. The results are reported in Table 15 below and the analytical results are presented in Table 16 below where “Cmpd” refers to compound, “RT” refers to retention time in minutes, and “Calc. Mass” refers to calculated mass. The relative abundance of disulfide cleavage and immolation products over time were evaluated and are disclosed in FIGS. 12A to 12C, 13A to 13C, 14A to 14C and 15A to 15C where the products were monitored by LC/MS from incubations of linker drugs 1, 2, and 11 at pH 7.0 and 37° C. in the presence of: 0.2 mM cysteine (FIGS. 12A, 12B and 12C); 0.03 mM cysteine (FIGS. 13A, 13B and 13C); 4 mM glutathione (FIGS. 14A, 14B and 14C); and 0.03 mM glutathione (FIGS. 15A, 15B and 15C). In FIGS. 12A to 12C, 13A to 13C, 14A to 14C and 15A to 15C, compound reference numbers 1, 2, 3a, 3b, 4a, 4b, 6, 7, 8, 11, 12a, 12b and 13 correspond to the structures below.

Sequence of human serum albumin Cys-34 (P02768 25-609): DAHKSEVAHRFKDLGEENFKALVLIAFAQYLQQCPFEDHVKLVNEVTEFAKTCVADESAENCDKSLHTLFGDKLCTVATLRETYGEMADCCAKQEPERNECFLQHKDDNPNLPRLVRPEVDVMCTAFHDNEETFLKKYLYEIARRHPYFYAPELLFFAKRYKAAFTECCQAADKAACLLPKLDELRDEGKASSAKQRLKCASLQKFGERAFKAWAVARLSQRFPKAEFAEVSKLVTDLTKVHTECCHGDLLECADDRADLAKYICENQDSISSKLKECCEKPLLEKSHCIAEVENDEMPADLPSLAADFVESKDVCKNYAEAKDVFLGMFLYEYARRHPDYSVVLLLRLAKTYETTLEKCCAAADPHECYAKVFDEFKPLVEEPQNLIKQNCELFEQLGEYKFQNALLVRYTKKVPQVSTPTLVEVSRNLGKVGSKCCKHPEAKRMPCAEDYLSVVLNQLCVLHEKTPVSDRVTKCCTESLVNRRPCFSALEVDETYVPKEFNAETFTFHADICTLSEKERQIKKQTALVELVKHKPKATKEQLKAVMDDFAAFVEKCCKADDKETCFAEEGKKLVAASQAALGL

SMILES | HAS CR (HSA Conjugation Ratio) [1] | AntP % P (penetratin (AntP) peptide % product) [2] [%] | also measured
CC[C@H](C)[C@@H]([C@@H](CC(=O)N1CCC[C@H]1[C@H](OC)[C@@H](C)C(=O)N[C@H](C)[C@@H](O)c1ccccc1)OC)N(C)C(=O)[C@@H](NC(=O)[C@H](C(C)C)N(C)C(=O)OCC(C)(C)SSc1nnnn1C)C(C)C (X1-[NMeV]V[Dil][Dolaproine]-X2) | 0.86 | 32 | –
CC[C@H](C)[C@@H]([C@@H](CC(=O)N1CCC[C@H]1[C@H](OC)[C@@H](C)C(=O)N[C@H](C)[C@@H](O)c1ccccc1)OC)N(C)C(=O)[C@@H](NC(=O)[C@H](C(C)C)N(C)C(=O)OCC(C)(C)SSc1ccc([N+](=O)[O-])cn1)C(C)C (X3-[NMeV]V[Dil][Dolaproine]-X2) | 0.11 | 14 | –
CC[C@H](C)[C@@H]([C@@H](CC(=O)N1CCC[C@H]1[C@H](OC)[C@@H](C)C(=O)N[C@H](C)[C@@H](O)c1ccccc1)OC)N(C)C(=O)[C@@H](NC(=O)[C@H](C(C)C)N(C)C(=O)OCC(C)(C)SSc1nc2ncnc(N)c2[nH]1)C(C)C (X4-[NMeV]V[Dil][Dolaproine]-X2) | 0.23 | 21 | –
CC[C@H](C)[C@@H]([C@@H](CC(=O)N1CCC[C@H]1[C@H](OC)[C@@H](C)C(=O)N[C@H](C)[C@@H](O)c1ccccc1)OC)N(C)C(=O)[C@@H](NC(=O)[C@H](C(C)C)N(C)C(=O)OCC(C)(C)SSc1nc2ncccc2[nH]1)C(C)C (X5-[NMeV]V[Dil][Dolaproine]-X2) | 0.84 | 12 | –
CC[C@H](C)[C@@H]([C@@H](CC(=O)N1CCC[C@H]1[C@H](OC)[C@@H](C)C(=O)N[C@H](C)[C@@H](O)c1ccccc1)OC)N(C)C(=O)[C@@H](NC(=O)[C@H](C(C)C)N(C)C(=O)OCC(C)(C)SSc1nc2c([N+](=O)[O-])cccc2[nH]1)C(C)C (X6-[NMeV]V[Dil][Dolaproine]-X2) | 0.65 | 26 | –
CC[C@H](C)[C@@H]([C@@H](CC(=O)N1CCC[C@H]1[C@H](OC)[C@@H](C)C(=O)N[C@H](C)[C@@H](O)c1ccccc1)OC)N(C)C(=O)[C@@H](NC(=O)[C@H](C(C)C)N(C)C(=O)OCC(C)(C)SSc1nc2ccccc2[nH]1)C(C)C (X7-[NMeV]V[Dil][Dolaproine]-X2) | 0.52 | 18 | –
CC[C@H](C)[C@@H]([C@@H](CC(=O)N1CCC[C@H]1[C@H](OC)[C@@H](C)C(=O)N[C@H](C)[C@@H](O)c1ccccc1)OC)N(C)C(=O)[C@@H](NC(=O)[C@H](C(C)C)N(C)C(=O)OCC(C)(C)SSc1nc2nccnc2[nH]1)C(C)C (X8-[NMeV]V[Dil][Dolaproine]-X2) | 0.63 | 36 | –
CC[C@H](C)[C@@H]([C@@H](CC(=O)N1CCC[C@H]1[C@H](OC)[C@@H](C)C(=O)N[C@H](C)[C@@H](O)c1ccccc1)OC)N(C)C(=O)[C@@H](NC(=O)[C@H](C(C)C)N(C)C(=O)OCC(C)(C)SSc1nnn[nH]1)C(C)C (X9-[NMeV]V[Dil][Dolaproine]-X2) | 0.09 | 1.9 | –
CC[C@H](C)[C@@H]([C@@H](CC(=O)N1CCC[C@H]1[C@H](OC)[C@@H](C)C(=O)N[C@H](C)[C@@H](O)c1ccccc1)OC)N(C)C(=O)[C@@H](NC(=O)[C@H](C(C)C)N(C)C(=O)OCC(C)(C)SSc1nc2ncncc2[nH]1)C(C)C (X10-[NMeV]V[Dil][Dolaproine]-X2) | 0.6 | 34 | –
CC[C@H](C)[C@@H]([C@@H](CC(=O)N1CCC[C@H]1[C@H](OC)[C@@H](C)C(=O)N[C@H](C)[C@@H](O)c1ccccc1)OC)N(C)C(=O)[C@@H](NC(=O)[C@H](C(C)C)N(C)C(=O)OCC(C)(C)SSc1nc2ccc(C(=O)O)cc2[nH]1)C(C)C (X11-[NMeV]V[Dil][Dolaproine]-X2) | 0.64 | 20 | –
CC[C@H](C)[C@@H]([C@@H](CC(=O)N1CCC[C@H]1[C@H](OC)[C@@H](C)C(=O)N[C@H](C)[C@@H](O)c1ccccc1)OC)N(C)C(=O)[C@@H](NC(=O)[C@H](C(C)C)N(C)C(=O)OCC(C)(C)SSc1ncc(C(=O)O)n1C)C(C)C (X12-[NMeV]V[Dil][Dolaproine]-X2) | 0.55 | 4 | –
CC[C@H](C)[C@@H]([C@@H](CC(=O)N1CCC[C@H]1[C@H](OC)[C@@H](C)C(=O)N[C@H](C)[C@@H](O)c1ccccc1)OC)N(C)C(=O)[C@@H](NC(=O)[C@H](C(C)C)N(C)C(=O)OCC(C)(C)SSc1nc2cnccc2[nH]1)C(C)C (X13-[NMeV]V[Dil][Dolaproine]-X2) | 0.86 | 26 | –
CC[C@H](C)[C@@H]([C@@H](CC(=O)N1CCC[C@H]1[C@H](OC)[C@@H](C)C(=O)N[C@H](C)[C@@H](O)c1ccccc1)OC)N(C)C(=O)[C@@H](NC(=O)[C@H](C(C)C)N(C)C(=O)OCC(C)(C)SSc1nc2cc([N+](=O)[O-])ccc2[nH]1)C(C)C (X14-[NMeV]V[Dil][Dolaproine]-X2) | 0.69 | 26 | –
CC[C@H](C)[C@@H]([C@@H](CC(=O)N1CCC[C@H]1[C@H](OC)[C@@H](C)C(=O)N[C@H](C)[C@@H](O)c1ccccc1)OC)N(C)C(=O)[C@@H](NC(=O)[C@H](C(C)C)N(C)C(=O)OCC(C)(C)SSc1ccncc1C(=O)N(C)C)C(C)C (X16-[NMeV]V[Dil][Dolaproine]-X2) | 0.22 | 51 | –
CC[C@H](C)[C@@H]([C@@H](CC(=O)N1CCC[C@H]1[C@H](OC)[C@@H](C)C(=O)N[C@H](C)[C@@H](O)c1ccccc1)OC)N(C)C(=O)[C@@H](NC(=O)[C@H](C(C)C)N(C)C(=O)OCC(C)(C)SSc1nc2ccccc2n1C)C(C)C (X17-[NMeV]V[Dil][Dolaproine]-X2) | 0.87 | 7.5 | –
C=C1C[C@H]2C=Nc3cc(OCCCCCOc4cc5c(cc4OC)C(=O)N4CC(=C)C[C@H]4C(O)N5C(=O)OCC4(S)CCC4)c(OC)cc3C(=O)N2C1 (stereo partly shown) [Compound 13] | – | – | Percentage of all products ([3]; 30 μM cysteine, 1 h): 1.3%; Percentage of all products ([3]; 30 μM cysteine, 4 h): 1.1%; Percentage of all products ([3]; 30 μM cysteine, 24 h): 0.1%; Percentage of all products ([3]; 200 μM cysteine, 1 h): 3.2%; Percentage of all products ([3]; 200 μM cysteine, 4 h): 1.6%; Percentage of all products ([3]; 200 μM cysteine, 24 h): 0%; Percentage of all products ([3]; 4 mM GSH, 1 h): 2.3%; Percentage of all products ([3]; 4 mM GSH, 4 h): 0%; Percentage of all products ([3]; 4 mM GSH, 24 h): 0%; Immolation of thiol intermediate ([3]; incubation with cysteine or glutathione): efficient immolation
